# According to patent US9944589B2, “Cycloproplyamine derivatives useful as inhibitors of histone demethylases KDM1A” (Istituto Europeo de Oncologia S.r.L., priority 2012, dated 2018):
# Structures can show the parent of a compound that is named as a salt.
# Assays:
# [1] = target: T1, human recombinant KDM1A (LSD1)/CoRest (Homo sapiens, UniProt O60341); experiment: Assay of enzyme inhibition of KDM1A (LSD1), Amplex UltraRed/peroxidase coupled; type: biochemical; details: 15 min preincubation, 4.5 μM mono-methylated H3-K4 peptide, range classes, read-out: IC50 [μM], KDM1A inhibition assay
# T1 construct: made in house; host or cells: E. coli
# Summary of the method: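 KDM1A/CoRest complex with inhibitor (e.g. 0–100 μM) and Amplex UltraRed/peroxidase preincubated 15 min at RT. Substrate: mono-methylated H3K4 21-mer peptide in 50 mM Tris pH 8, 0.05 mg/ml BSA, aerobic. IC50 from duplicates run twice, background-corrected.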
# Human recombinant MAO B = target: T2, Human recombinant MAO B (Homo sapiens, UniProt P27338); details: ratio of IC50 against MAO-B over IC50 for LSD1
# T2 sequence (P27338 1-520): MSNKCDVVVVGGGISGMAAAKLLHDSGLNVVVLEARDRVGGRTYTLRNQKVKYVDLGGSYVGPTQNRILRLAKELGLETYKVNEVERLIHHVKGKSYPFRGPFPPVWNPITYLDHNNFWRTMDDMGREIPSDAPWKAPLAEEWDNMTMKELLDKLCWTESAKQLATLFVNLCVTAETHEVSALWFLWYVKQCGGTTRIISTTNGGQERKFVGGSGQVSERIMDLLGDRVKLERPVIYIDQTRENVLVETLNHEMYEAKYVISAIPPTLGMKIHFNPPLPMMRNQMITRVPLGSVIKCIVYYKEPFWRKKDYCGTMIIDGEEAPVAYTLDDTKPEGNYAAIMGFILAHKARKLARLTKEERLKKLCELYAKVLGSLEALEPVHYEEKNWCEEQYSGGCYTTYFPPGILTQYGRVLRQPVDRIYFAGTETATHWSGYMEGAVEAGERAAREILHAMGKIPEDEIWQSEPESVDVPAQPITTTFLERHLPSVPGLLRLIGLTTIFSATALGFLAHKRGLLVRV
# Protocol: The MAO-Glo Assay from Promega (cat. V1402, Promega, Madison, Wis.) was used to measure the effect of inhibitors on MAO-A and MAO-B activity.
# After 30 minutes of incubation the reaction was stopped with the Promega detection reagent. The experiments were carried out in duplicate. IC50 was calculated using GraphPad Prism version 4.0 (GraphPad Software, San Diego, Calif.).
# [2] = test system: Acute promyelocytic leukemia NB4 cells; experiment: Cell growth (CellTiter-Fluor cell viability assay); type: cell-based; details: Homo sapiens, NB-4, 48 h, range classes, read-out: IC50 [μM], cell growth inhibitory assay
# Summary of the method: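 Exponentially growing NB4 cells exposed to a range of inhibitor concentrations for 48 h. Viability then read as live-cell protease fluorescence (ex 360/em 535 nm) after ≥90 min reagent incubation at 37 °C; IC50 calculated from the data.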
Structure (SMILES),IC50 [1] [µM],IC50 (MAO-B)/IC50 (LSD1) (Human recombinant MAO B),IC50 [2] [µM]
"N[C@]1(c2ccccc2)C[C@H]1c1ccc(NC(=O)c2ccc(-c3ccccc3)cc2)cc1 (relative stereo) [Example A-89, N-[4-[trans-2-amino-2-phenyl-cyclopropyl]phenyl]-4-phenyl-benzamide 2,2,2-trifluoroacetic acid]",< 0.1,,≤ 10
"N[C@]1(c2ccccc2)C[C@H]1c1ccc(NC(=O)c2cccc3ccccc23)cc1 (relative stereo) [Example A-90, N-[4-[trans-2-amino-2-phenyl-cyclopropyl]phenyl] naphthalene-1-carboxamide hydrochloride]",< 0.1,,≤ 10
"CC[C@@]1(N)C[C@H]1c1ccc(NC(=O)c2ccc(N3CCN(C)CC3)c(NC(=O)OCc3ccccc3)c2)cc1 (relative stereo) [Example A-117, benzyl N-[5-[[4-[trans-2-amino-2-ethyl-cyclopropyl]phenyl]carbamoyl]-2-(4-methylpiperazin-1-yl)phenyl] carbamate 2,2,2-trifluoroacetic acid]",0.1 to 1,,≤ 10
"CC[C@@]1(N)C[C@H]1c1ccc(-n2cc(-c3cccc(NC(=O)OCc4ccccc4)c3)nn2)cc1 (relative stereo) [Example A-121, Benzyl N-[3-[1-[4-[trans-2-amino-2-ethyl-cyclopropyl]phenyl]triazol-4-yl]phenyl]carbamate hydrochloride]",0.1 to 1,,50 to 100
"CC[C@@]1(N)C[C@H]1c1cccc(-n2cc(-c3ccccc3)nn2)c1 (relative stereo) [Example A-122, trans-1-ethyl-2-[3-(4-phenyltriazol-1-yl)phenyl]cyclopropan amine hydrochloride]",0.1 to 1,,10 to 50
"N[C@]1(Cc2ccc3ccccc3c2)C[C@H]1c1ccc(-n2cc(-c3ccccc3)nn2)cc1 (relative stereo) [Example A-124, trans-1-(2-naphthylmethyl)-2-[4-(4-phenyltriazol-1-yl)phenyl]cyclopropan amine hydrochloride]",0.1 to 1,,10 to 50
"N[C@]1(CNCc2ccccc2)C[C@H]1c1ccccc1 (relative stereo) [Example B-3, trans-1-(benzylamino)methyl-2-phenyl-cyclopropanamine dihydrochloride]",1 to 5,,50 to 100
"CN1CCN(C(=O)CN[C@]2(Cc3ccc4ccccc4c3)C[C@H]2c2ccccc2)CC1 (relative stereo) [Example C-24, 1-(4-methylpiperazin-1-yl)-2-[[trans-1-(2-naphthylmethyl)-2-phenyl-cyclopropyl]amino]ethanone dihydrochloride]",0.1 to 1,,10 to 50
"N[C@]1(c2ccc([N+](=O)[O-])cc2)C[C@H]1c1ccccc1 (relative stereo) [Example D-3, trans-1-(4-nitrophenyl)-2-phenyl-cyclopropanamine hydrochloride]",0.1 to 1,,10 to 50
"N[C@]1(c2ccccc2)C[C@H]1c1ccc(Cl)cc1 (relative stereo) [Example D-4, trans-2-(4-chlorophenyl)-1-phenyl-cyclopropanamine hydrochloride]",0.1 to 1,,50 to 100
"N[C@]1(c2ccccc2)C[C@H]1c1ccc(Br)cc1 (relative stereo) [Example D-5, trans-2-(4-bromophenyl)-1-phenyl-cyclopropanamine hydrochloride]",< 0.1,,10 to 50
"N[C@]1(Cc2ccc3ccccc3c2)C[C@H]1c1ccc(OCc2ccccc2)cc1 (stereo in doubt) [Example A-67, 2-(4-benzyloxyphenyl)-1-(2-naphthylmethyl) cyclopropanamine hydrochloride]",0.1 to 1,,10 to 50

# Results, then the compound that gave them:
IC50 [1] [µM],IC50 (MAO-B)/IC50 (LSD1) (Human recombinant MAO B),IC50 [2] [µM],Structure (SMILES)
< 0.1,>100,,"CC[C@]1(N)C[C@@H]1c1ccc(NC(=O)c2ccccc2)cc1.Cl (relative stereo) [Example A-47, N-[4-[trans-2-amino-2-ethyl-cyclopropyl]phenyl]benzamide hydrochloride]"
< 0.1,60,≤ 10,"CC[C@@]1(N)C[C@H]1c1ccc(NC(=O)c2ccc(-c3ccoc3)cc2)cc1 (relative stereo) [Example A-78, N-[4-[trans-2-amino-2-ethyl-cyclopropyl]phenyl]-4-(3-furyl) benzamide hydrochloride]"
< 0.1,,10 to 50,"CC[C@@]1(N)C[C@H]1c1ccc(NC(=O)c2ccc(N3CCOCC3)cc2)cc1 (relative stereo) [Example A-88, N-[4-[trans-2-amino-2-ethyl-cyclopropyl]phenyl]-4-morpholino-benzamide 2,2,2-trifluoroacetic acid]"
0.1 to 1,,10 to 50,"CC[C@@]1(N)C[C@H]1c1cccc(NC(=O)c2ccc(-c3ccccc3)cc2)c1 (relative stereo) [Example A-91, N-[3-[trans-2-amino-2-ethyl-cyclopropyl]phenyl]-4-phenyl-benzamide hydrochloride]"
0.1 to 1,,10 to 50,"CC[C@@]1(N)C[C@H]1c1cccc(NC(=O)c2ccc3ccccc3c2)c1 (relative stereo) [Example A-92, N-[3-[trans-2-amino-2-ethyl-cyclopropyl]phenyl] naphthalene-2-carboxamide hydrochloride]"
0.1 to 1,,≤ 10,"CC[C@@]1(N)C[C@H]1c1ccc(NC(=O)c2ccc(NC(=O)OCc3ccccc3)cc2)c(F)c1 (relative stereo) [Example A-95, benzyl N-[4-[[4-[trans-2-amino-2-ethyl-cyclopropyl]-2-fluoro-phenyl]carbamoyl]phenyl]carbamate hydrochloride]"
< 0.1,,10 to 50,"CC[C@@]1(N)C[C@H]1c1ccc(NC(=O)c2ccc(N3CCN(C)CC3)cc2)cc1 (relative stereo) [Example A-97, N-[4-[trans-2-amino-2-ethyl-cyclopropyl]phenyl]-4-(4-methylpiperazin-1-yl)benzamide 2,2,2-trifluoroacetic acid]"
< 0.1,>100,≤ 10,"CC[C@@]1(N)C[C@H]1c1ccc(NC(=O)c2cccc(N3CCOC3=O)c2)cc1 (relative stereo) [Example A-98, N-[4-[trans-2-amino-2-ethyl-cyclopropyl]phenyl]-3-(2-oxooazolidin-3-yl)benzamide 2,2,2-trifluoroacetic acid]"
< 0.1,,≤ 10,"CC[C@@]1(N)C[C@H]1c1ccc(NC(=O)c2ccc(N3CCOCC3)c(NC(=O)OCc3ccccc3)c2)cc1 (relative stereo) [Example A-99, benzyl N-[5-[[4-[trans-2-amino-2-ethyl-cyclopropyl]phenyl]carbamoyl]-2-morpholino-phenyl]carbamate 2,2,2-trifluoroacetic acid]"
< 0.1,,10 to 50,"CC[C@@]1(N)C[C@H]1c1ccc(NC(=O)c2ccncc2)cc1 (relative stereo) [Example A-101, N-[4-(trans-2-amino-2-ethyl-cyclopropyl)phenyl] pyridine-4-carboxamide dihydrochloride]"
0.1 to 1,,≤ 10,"N[C@]1(CCc2ccccc2)C[C@H]1c1ccc(NC(=O)c2ccc(-c3ccccc3)cc2)cc1 (relative stereo) [Example A-113, N-[4-(trans-2-amino-2-phenethyl-cyclopropyl)phenyl]-4-phenyl-benzamide hydrochloride]"
< 0.1,>100,≤ 10,"N[C@]1(CCc2ccccc2)C[C@H]1c1ccc(NC(=O)c2ccccc2)cc1 (relative stereo) [Example A-114, N-[4-trans-2-amino-2-phenethyl-cyclopropyl)phenyl] benzamide hydrochloride]"
< 0.1,,≤ 10,"CN1CCC(c2ccc(C(=O)Nc3ccc([C@@H]4C[C@]4(N)CCc4ccccc4)cc3)cc2)CC1 (relative stereo) [Example A-115, N-[4-(trans-2-amino-2-phenethyl-cyclopropyl)phenyl]-4-(1-methyl-4-piperidyl)benzamide dihydrochloride]"
< 0.1,,≤ 10,"N[C@]1(CCc2ccccc2)C[C@H]1c1ccc(NC(=O)c2cccc(N3CCOC3=O)c2)cc1 (relative stereo) [Example A-118, N-[4-(trans-2-amino-2-phenethyl-cyclopropyl)phenyl]-3-(2-oxooxazolidin-3-yl)benzamide 2,2,2-trifluoroacetic acid]"
< 0.1,,≤ 10,"N[C@]1(Cc2ccc3ccccc3c2)C[C@H]1c1ccc(NC(=O)c2ccccc2)cc1 [Example A-44, N-[4-[tyrans-2-amino-2-(2-naphthylmethyl)cyclopropyl]phenyl] benzamide hydrochloride]"
